Results on 1 molecule are retold here after article doi:10.1101/2024.05.22.595443v1 (biorxiv, 2024).

Assay [1] has as its target PRMT5:MEP50 complex (Homo sapiens, UniProt O14744). In words: SPR. Type of assay: binding.
Assay [2] deals with EZH2 (Homo sapiens, UniProt Q15910). Put plainly: SPR. Format: binding.
Chain of EZH2 (Q15910 whole entry): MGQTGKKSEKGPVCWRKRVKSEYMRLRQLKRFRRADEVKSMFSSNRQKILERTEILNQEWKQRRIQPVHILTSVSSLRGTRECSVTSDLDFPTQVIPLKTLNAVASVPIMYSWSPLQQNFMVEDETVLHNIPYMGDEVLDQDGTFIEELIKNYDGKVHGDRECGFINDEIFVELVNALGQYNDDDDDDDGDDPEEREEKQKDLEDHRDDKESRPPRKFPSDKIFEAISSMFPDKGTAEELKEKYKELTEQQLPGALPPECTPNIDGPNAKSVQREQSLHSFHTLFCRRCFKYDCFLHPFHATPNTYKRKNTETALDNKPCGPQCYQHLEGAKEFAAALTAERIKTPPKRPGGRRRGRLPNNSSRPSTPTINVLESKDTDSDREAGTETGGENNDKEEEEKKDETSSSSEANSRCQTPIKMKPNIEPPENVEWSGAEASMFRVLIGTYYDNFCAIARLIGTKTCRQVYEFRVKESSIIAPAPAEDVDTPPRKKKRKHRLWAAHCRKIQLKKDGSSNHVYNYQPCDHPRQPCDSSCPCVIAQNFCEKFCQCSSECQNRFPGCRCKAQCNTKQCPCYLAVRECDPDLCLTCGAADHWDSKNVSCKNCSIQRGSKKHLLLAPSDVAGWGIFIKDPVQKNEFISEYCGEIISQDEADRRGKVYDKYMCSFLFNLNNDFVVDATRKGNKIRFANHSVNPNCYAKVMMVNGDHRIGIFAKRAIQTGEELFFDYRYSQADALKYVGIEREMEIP

Chain of PRMT5:MEP50 complex (O14744 2-637): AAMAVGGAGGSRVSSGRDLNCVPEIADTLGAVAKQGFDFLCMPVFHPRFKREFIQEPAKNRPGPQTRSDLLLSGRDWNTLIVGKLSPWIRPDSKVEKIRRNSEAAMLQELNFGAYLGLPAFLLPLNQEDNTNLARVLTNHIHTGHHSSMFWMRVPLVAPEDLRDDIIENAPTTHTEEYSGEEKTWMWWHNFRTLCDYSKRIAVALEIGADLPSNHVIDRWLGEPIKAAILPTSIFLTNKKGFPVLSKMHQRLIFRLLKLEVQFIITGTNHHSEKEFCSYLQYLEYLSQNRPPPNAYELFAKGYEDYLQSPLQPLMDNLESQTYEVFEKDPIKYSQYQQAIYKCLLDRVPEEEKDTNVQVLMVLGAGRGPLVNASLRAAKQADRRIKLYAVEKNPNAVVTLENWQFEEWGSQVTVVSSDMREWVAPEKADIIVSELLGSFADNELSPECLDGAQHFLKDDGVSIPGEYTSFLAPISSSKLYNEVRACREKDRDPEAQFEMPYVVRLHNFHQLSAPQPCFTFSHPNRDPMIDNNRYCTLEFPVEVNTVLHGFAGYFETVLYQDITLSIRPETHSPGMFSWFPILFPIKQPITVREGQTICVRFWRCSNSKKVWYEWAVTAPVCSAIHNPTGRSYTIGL
Chain of PRMT5:MEP50 complex (Q9BQA1 whole entry partner): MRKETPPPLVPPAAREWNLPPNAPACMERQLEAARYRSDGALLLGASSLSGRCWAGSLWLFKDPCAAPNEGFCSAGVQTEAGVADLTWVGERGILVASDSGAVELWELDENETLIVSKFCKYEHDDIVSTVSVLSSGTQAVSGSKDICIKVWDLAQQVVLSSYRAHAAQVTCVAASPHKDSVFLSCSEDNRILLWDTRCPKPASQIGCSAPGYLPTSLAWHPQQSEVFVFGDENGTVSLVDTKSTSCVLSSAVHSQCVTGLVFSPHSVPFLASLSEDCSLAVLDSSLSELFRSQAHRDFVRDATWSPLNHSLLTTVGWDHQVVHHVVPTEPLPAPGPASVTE

As usually defined, the Kd is the free concentration of one partner at which half of the binding sites on the other are occupied at equilibrium, for simple one-to-one binding. Lower therefore signals tighter binding. For the molecule `O=c1oc2c(O)c(O)cc3c(=O)oc4c(O)c(O)cc1c4c23` [Ellagic acid], the Kd in assay [1] was 65.4 µM; in assay [2], 3.28 µM.
